Measured values published in patent publication EP0557345B1, “1,3-BIS- 3-(MONO- OR POLY-HYDROXY)ACYLAMINO-5-(MONO- OR POLY-HYDROXYALKYL)AMINOCARBONYL-2,4,6-TRIIODO-BENZOYL-AMINO]-HYDROXY- OR HYDROXYALKYL-PROPANES, THEIR METHODS OF PREPARATION AND X-RAY CONTRAST MEDIA CONTAINING THEM” (DIBRA S.p.A., priority 1990, dated 1992).
Like-named read-outs stand apart in the source and are kept apart here.

Experiments:
Solubility in water = type: physicochemical
[1] = Osmolality of the solution; type: physicochemical; conditions: 37°C, 300 mgI/ml
[2] = Viscosity of the solution; type: physicochemical; conditions: 37°C, 300 mgI/ml
[3] = Plasma kinetics after intravenous administration in rats; type: in vivo; conditions: rat, 200 mgI/kg; for half-life: iv
Protocol: The apparent volume of distribution is 123.5 ml/kg showing that the product is distributed in plasma and the extracellular spaces.

[4] = Elimination through urine and bile after administration; type: in vivo, rats; conditions: after 7 hours from the administration
Protocol: Elimination occurs mainly through urinary pathway and in less extent through the bile. After 7 hours from the administration, 76.7% of the administered dose was found in the urine and 3.5% in the bile.

mice = experiment: Acute toxicity, intravenous administration in mice; type: in vivo; conditions: 14 days of observation
rats = experiment: Acute toxicity, intracisternal administration in rats; type: in vivo; conditions: 7 days of observation

Row | Solubility in H₂O (Solubility in water; at 20°C) | Compound | Osmolality [1] | Viscosity [2] | further results
1 | 100 % w/v | O=C(CO)Nc1c(I)c(C(=O)NCC(O)CNC(=O)c2c(I)c(NC(=O)CO)c(I)c(C(=O)NC(CO)C(O)CO)c2I)c(I)c(C(=O)NC(CO)C(O)CO)c1I (stereo not shown) [Example 15, 1,3-bis-[3-hydroxyacetylamino-5-(1,3,4-trihydroxy-2-butyl)aminocarbonyl-2,4,6-triiodo-benzoyl-amino]-2-hydroxy-propane] | – | – | –
2 | 100 % w/v | CN(CC(O)CN(C)C(=O)c1c(I)c(NC(=O)CO)c(I)c(C(=O)NC(CO)C(O)CO)c1I)C(=O)c1c(I)c(NC(=O)CO)c(I)c(C(=O)NC(CO)C(O)CO)c1I (stereo not shown) [Example 16, 1,3-bis-[N-methyl-N-[3-hydroxyacetylamino-5-(1,3,4-trihydroxy-2-butyl)aminocarbonyl-2,4,6-triiodo-benzoyl]-amino]-2-hydroxy-propane] | – | – | –
3 | 100 % w/v | C[C@H](O)C(=O)Nc1c(I)c(C(=O)NCC(O)CNC(=O)c2c(I)c(NC(=O)[C@H](C)O)c(I)c(C(=O)NC(CO)C(O)CO)c2I)c(I)c(C(=O)NC(CO)C(O)CO)c1I (stereo partly drawn) [Example 4, 1,3-bis-[3-(L-2-hydroxy-propionyl)amino-5-(1,3,4-tri-hydroxy-2-butyl)aminocarbonyl-2,4,6-triiodo-benzoyl-amino]-2-hydroxy-propane] | – | – | –
4 | > 100 % w/v | C[C@H](O)C(=O)Nc1c(I)c(C(=O)NCC(O)CO)c(I)c(C(=O)N(C)CC(O)CN(C)C(=O)c2c(I)c(NC(=O)[C@H](C)O)c(I)c(C(=O)NCC(O)CO)c2I)c1I (stereo partly drawn) [Example 8, 1,3-bis-[N-methyl-N-[3-(L-2-hydroxy-propionyl)amino-5-(2,3-dihydroxy-propyl)aminocarbonyl-2,4,6-triiodobenzoyl]amino]-2-hydroxy-propane] | – | – | –
5 | – | C[C@H](O)C(=O)Nc1c(I)c(C(=O)NCC(O)CNC(=O)c2c(I)c(NC(=O)CO)c(I)c(C(=O)NCC(O)CO)c2I)c(I)c(C(=O)NC(CO)CO)c1I (stereo partly drawn) [Example 10, 1-[3-(L-2-hydroxy-propionyl)amino-5-(1,3-dihydroxyisopropyl)aminocarbonyl-2,4,6-triiodo-benzoyl-amino]-3-[3-hydroxyacetylamino-5-(2,3-dihydroxy-propyl)aminocarbonyl-2,4,6-triiodo-benzoyl-amino]-2-hydroxy-propane] | 131 mosm/kg H₂O | 8.6 mPa·s | –
6 | – | C[C@H](O)C(=O)Nc1c(I)c(C(=O)NCC(O)CNC(=O)c2c(I)c(NC(=O)[C@H](C)O)c(I)c(C(=O)NC(CO)CO)c2I)c(I)c(C(=O)NC(CO)CO)c1I [Example 1, 1,3-bis-[3-(L-2-hydroxy-propionyl)amino-5-(1,3-dihydroxy-isopropyl)-aminocarbonyl-2,4,6-triiodo-benzoyl-amino]-2-hydroxy-propane] | 141 mosm/kg H₂O | 8.5 mPa·s | Vd ([3]; read-out: apparent volume of distribution): 0.123 L/kg; clearance ([3]; read-out: total clearance): 7.9 mL/min/kg; half-life ([3]; read-out: half life for the distribution phase): 2.9 min; half-life ([3]; read-out: half life for the elimination phase): 22.9 min; administered dose found in the bile [4]: 3.5%; administered dose found in the urine [4]: 76.7%; LD₅₀ C.L. 95% (mice): > 15000 mgI/kg; LD₅₀ C.L. 95% (rats): >900 mgI/kg
7 | – | C[C@H](O)C(=O)Nc1c(I)c(C(=O)NCC(O)CNC(=O)c2c(I)c(NC(=O)CO)c(I)c(C(=O)NC(CO)C(O)CO)c2I)c(I)c(C(=O)NC(CO)CO)c1I (stereo partly drawn) [Example 11, 1-[3-hydroxyacetylamino-5-(1,3,4-trihydroxy-2-butyl)aminocarbonyl-2,4,6-triiodo-benzoyl-amino]-3-[3-(L-2-hydroxy-propionyl)amino-5-(1,3-dihydroxy-isopropyl)aminocarbonyl-2,4,6-triiodo-benzoyl-amino]-2-hydroxypropane] | – | – | Solubility in H₂O (Solubility in water; at 25°C): > 100 % w/v
8 | – | CC(=O)N(CC(O)CN(C(C)=O)c1c(I)c(C(=O)NCC(O)CO)c(I)c(C(=O)NCC(O)CO)c1I)c1c(I)c(C(=O)NCC(O)CO)c(I)c(C(=O)NCC(O)CO)c1I (stereo not shown) [C, 1,3-bis-[N-[3,5-bis-(2,3-dihydroxy-propyl)aminocarbonyl-2,4,6-triiodo-phenyl]-acetylamino]-2-hydroxy-propane, reference compound] | 196 mosm/kg H₂O | 8.7 mPa·s | –
